Data reported in the supplement of paper PMC11061612.

What was measured:
ARH-77 (Non-Cancerous) = assay: Bliss excess, mean over the matrix (fraction); higher = more synergy
In short: (§1)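 Bliss excess equals the observed combination effect minus the expected value EA + EB − EA·EB, where EA and EB are the effects of each agent alone. Combination Emax is the second-highest inhibition within the matrix. Inhibition was scaled from CellTiter-Glo 2.0 luminescence, with 0 set by vehicle wells and 1 by blank wells, after 72 hours of two-drug dosing of cells plated in 1536-well plates.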

[1] = system: BT-483 (Breast Carcinoma); assay: as above
In short: as §1

[2] = system: CCK-81 (Colorectal Carcinoma); assay: as above
In short: as §1

[3] = system: ECC10 (Gastric Carcinoma); assay: as above
In short: as §1

LN-405 (Glioblastoma) = assay: as above
In short: as §1

[4] = system: NCI-H64 (Small Cell Lung Carcinoma); assay: as above
In short: as §1

[5] = system: VCaP (Prostate Carcinoma); assay: as above
In short: as §1

[6] = system: BT-483 (Breast Carcinoma); assay: combination Emax (second highest fraction inhibited in the dose matrix, 72 h); higher = more inhibition; extreme values may be limits of the assay
In short: as §1

SMILES | Bliss excess (ARH-77 (Non-Cancerous)) | Bliss excess [1] | Bliss excess [2] | Bliss excess [3] | Bliss excess (LN-405 (Glioblastoma)) | Bliss excess [4] | Bliss excess [5] | combination Emax [6]
CN(C)CCCOc1ccc(-c2ccc3ncc4c(c3c2)n(C2CCOCC2)c(=O)n4C)cn1 [AZD0156] + O=C(c1cc(Cc2n[nH]c(=O)c3ccccc23)ccc1F)N1CCN(C(=O)C2CC2)CC1 [Olaparib] (first compound max 3 µM, partner max 3 µM) | 0.0648 | -0.0118 | -0.0131 | 0.0522 | -0.0375 | -0.0106 | 0.0063 | 0.313
C=CCn1c(=O)c2cnc(Nc3ccc(N4CCN(C)CC4)cc3)nc2n1-c1cccc(C(C)(C)O)n1 [AZD1775] + C1CN(CCC1(C(=O)N[C@@H](CCO)C2=CC=C(C=C2)Cl)N)C3=NC=NC4=C3C=CN4 [Capivasertib] (first compound max 3 µM, partner max 3 µM) | 0.018 | -0.0416 | -0.0214 | -0.0156 | -0.0436 | 0.0202 | -0.061 | 0.391
CC1(C)CCC(CN2CCN(c3ccc(C(=O)NS(=O)(=O)c4ccc(NCC5CCOCC5)c([N+](=O)[O-])c4)c(Oc4cnc5[nH]ccc5c4)c3)CC2)=C(c2ccc(Cl)cc2)C1 [Venetoclax] + CN(C)CCCOc1ccc(-c2ccc3ncc4c(c3c2)n(C2CCOCC2)c(=O)n4C)cn1 [AZD0156] (first compound max 1 µM, 7x7, partner max 1 µM) | 0.0357 | – | -0.0054 | 0.0243 | -0.0256 | -0.0149 | 0.032 | –
CC1(C)CCC(CN2CCN(c3ccc(C(=O)NS(=O)(=O)c4ccc(NCC5CCOCC5)c([N+](=O)[O-])c4)c(Oc4cnc5[nH]ccc5c4)c3)CC2)=C(c2ccc(Cl)cc2)C1 [Venetoclax] + COc1cc(Nc2ncc3c(n2)-c2ccc(Cl)cc2C(c2c(F)cccc2OC)=NC3)ccc1C(=O)O [Alisertib] (first compound max 1 µM, 7x7, partner max 10 µM) | 0.278 | – | 0.0196 | -0.0281 | -0.0196 | 0.194 | 0.0574 | –
CC1(C)CCC(CN2CCN(c3ccc(C(=O)NS(=O)(=O)c4ccc(NCC5CCOCC5)c([N+](=O)[O-])c4)c(Oc4cnc5[nH]ccc5c4)c3)CC2)=C(c2ccc(Cl)cc2)C1 [Venetoclax] + C[C@@H]1COCCN1C2=NC(=NC(=C2)C3(CC3)[S@](=N)(=O)C)C4=C5C=CNC5=NC=C4 [AZD6738] (first compound max 1 µM, 7x7, partner max 10 µM) | 0.0642 | – | -0.0197 | -0.0132 | -0.016 | -0.0054 | -0.0174 | –
CC1(C)CCC(CN2CCN(c3ccc(C(=O)NS(=O)(=O)c4ccc(NCC5CCOCC5)c([N+](=O)[O-])c4)c(Oc4cnc5[nH]ccc5c4)c3)CC2)=C(c2ccc(Cl)cc2)C1 [Venetoclax] + C[C@@H](Nc1cc(F)cc(F)c1)c1cc(C(=O)N(C)C)cc2c(=O)cc(N3CCOCC3)oc12 [AZD8186] (first compound max 1 µM, 7x7, partner max 3 µM) | 0.0649 | – | -0.0287 | 0.0539 | -0.0013 | 0.0288 | -0.0242 | –
CC1(C)CCC(CN2CCN(c3ccc(C(=O)NS(=O)(=O)c4ccc(NCC5CCOCC5)c([N+](=O)[O-])c4)c(Oc4cnc5[nH]ccc5c4)c3)CC2)=C(c2ccc(Cl)cc2)C1 [Venetoclax] + Cc1cc2ncnn2cc1Nc1ncc2c(n1)n(C1CCOCC1)c(=O)n2C [AZD7648] (first compound max 1 µM, 7x7, partner max 10 µM) | 0.0245 | – | -0.0114 | 0.0065 | 0.015 | -0.056 | -0.0248 | –
CC1(C)CCC(CN2CCN(c3ccc(C(=O)NS(=O)(=O)c4ccc(NCC5CCOCC5)c([N+](=O)[O-])c4)c(Oc4cnc5[nH]ccc5c4)c3)CC2)=C(c2ccc(Cl)cc2)C1 [Venetoclax] + Cn1cnc2c(F)c(Nc3ccc(Br)cc3Cl)c(C(=O)NOCCO)cc21 [Selumetinib] (first compound max 1 µM, 7x7, partner max 3 µM) | 0.0304 | – | 0.0338 | 0.0364 | -0.0598 | -0.0243 | -0.0082 | –
